Test results published in PubChem BioAssay AID1259407 (Chemical Carcinogenesis Research Information System (CCRIS), 2018).
Activity calls are given as the source filed them. The rule behind the calls is not given here.

Tested on: CCRIS mutagenicity, Ames/micronucleus/aberration tests
Test: CCRIS mutagenicity studies

Cc1cc(S(=O)(=O)O)ccc1N
mutagenic call (Test System: AMES SALMONELLA TYPHIMURIUM, Strain/Indicator: TA98, Metabolic Activation: HAMSTER, LIVER, S-9, AROCLOR 1254, Method: STANDARD PLATE): inactive; negative | mutagenic call (Test System: AMES SALMONELLA TYPHIMURIUM, Strain/Indicator: TA98, Metabolic Activation: NONE, Method: STANDARD PLATE): inactive; negative | mutagenic call (Test System: AMES SALMONELLA TYPHIMURIUM, Strain/Indicator: TA98, Metabolic Activation: RAT, LIVER, S-9, AROCLOR 1254, Method: STANDARD PLATE): inactive; negative | mutagenic call (Test System: AMES SALMONELLA TYPHIMURIUM, Strain/Indicator: TA100, Metabolic Activation: HAMSTER, LIVER, S-9, AROCLOR 1254, Method: STANDARD PLATE): inactive; negative | mutagenic call (Test System: AMES SALMONELLA TYPHIMURIUM, Strain/Indicator: TA100, Metabolic Activation: NONE, Method: STANDARD PLATE): inactive; negative | mutagenic call (Test System: AMES SALMONELLA TYPHIMURIUM, Strain/Indicator: TA100, Metabolic Activation: RAT, LIVER, S-9, AROCLOR 1254, Method: STANDARD PLATE): inactive; negative | mutagenic call (Test System: AMES SALMONELLA TYPHIMURIUM, Strain/Indicator: TA1535, Metabolic Activation: HAMSTER, LIVER, S-9, AROCLOR 1254, Method: STANDARD PLATE): inactive; negative | mutagenic call (Test System: AMES SALMONELLA TYPHIMURIUM, Strain/Indicator: TA1535, Metabolic Activation: NONE, Method: STANDARD PLATE): inactive; negative | mutagenic call (Test System: AMES SALMONELLA TYPHIMURIUM, Strain/Indicator: TA1535, Metabolic Activation: RAT, LIVER, S-9, AROCLOR 1254, Method: STANDARD PLATE): inactive; negative | mutagenic call (Test System: AMES SALMONELLA TYPHIMURIUM, Strain/Indicator: TA1537, Metabolic Activation: HAMSTER, LIVER, S-9, AROCLOR 1254, Method: STANDARD PLATE): inactive; negative | mutagenic call (Test System: AMES SALMONELLA TYPHIMURIUM, Strain/Indicator: TA1537, Metabolic Activation: NONE, Method: STANDARD PLATE): inactive; negative | mutagenic call (Test System: AMES SALMONELLA TYPHIMURIUM, Strain/Indicator: TA1537, Metabolic Activation: RAT, LIVER, S-9, AROCLOR 1254, Method: STANDARD PLATE): inactive; negative | mutagenic call (Test System: AMES SALMONELLA TYPHIMURIUM, Strain/Indicator: TA1538, Metabolic Activation: HAMSTER, LIVER, S-9, AROCLOR 1254, Method: STANDARD PLATE): inactive; negative | mutagenic call (Test System: AMES SALMONELLA TYPHIMURIUM, Strain/Indicator: TA1538, Metabolic Activation: NONE, Method: STANDARD PLATE): inactive; negative | mutagenic call (Test System: AMES SALMONELLA TYPHIMURIUM, Strain/Indicator: TA1538, Metabolic Activation: RAT, LIVER, S-9, AROCLOR 1254, Method: STANDARD PLATE): inactive; negative | mutagenic call (Test System: MOUSE LYMPHOMA, Strain/Indicator: L5178Y (TK+/TK-), Metabolic Activation: NONE, Method: SUSPENSION/PLATE): inactive; negative. reevaluation of results: negative | mutagenic call (Test System: MOUSE LYMPHOMA, Strain/Indicator: L5178Y (TK+/TK-), Metabolic Activation: RAT, LIVER, S-9, AROCLOR 1254, Method: SUSPENSION/PLATE): active; positive. reevaluation of results: positive

CCOC(=O)CC(=O)OCC
mutagenic call (Test System: Ames Salmonella typhimurium, Strain/Indicator: TA98, Metabolic Activation: None, Method: Preincubation): inactive; negative | mutagenic call (Test System: Ames Salmonella typhimurium, Strain/Indicator: TA98, Metabolic Activation: Rat, Liver, S-9, Phenobarbital and 5,6-benzoflavone, Method: Preincubation): inactive; negative | mutagenic call (Test System: Ames Salmonella typhimurium, Strain/Indicator: TA100, Metabolic Activation: None, Method: Preincubation): inactive; negative | mutagenic call (Test System: Ames Salmonella typhimurium, Strain/Indicator: TA100, Metabolic Activation: Rat, Liver, S-9, Phenobarbital and 5,6-benzoflavone, Method: Preincubation): inactive; negative | mutagenic call (Test System: Ames Salmonella typhimurium, Strain/Indicator: TA1535, Metabolic Activation: None, Method: Preincubation): inactive; negative | mutagenic call (Test System: Ames Salmonella typhimurium, Strain/Indicator: TA1535, Metabolic Activation: Rat, Liver, S-9, Phenobarbital and 5,6-benzoflavone, Method: Preincubation): inactive; negative | mutagenic call (Test System: Ames Salmonella typhimurium, Strain/Indicator: TA1537, Metabolic Activation: None, Method: Preincubation): inactive; negative | mutagenic call (Test System: Ames Salmonella typhimurium, Strain/Indicator: TA1537, Metabolic Activation: Rat, Liver, S-9, Phenobarbital and 5,6-benzoflavone, Method: Preincubation): inactive; negative | mutagenic call (Test System: E. coli, Strain/Indicator: WP2uvrA/pKM101, Metabolic Activation: None, Method: Preincubation): inactive; negative | mutagenic call (Test System: E. coli, Strain/Indicator: WP2uvrA/pKM101, Metabolic Activation: Rat, Liver, S-9, Phenobarbital and 5,6-benzoflavone, Method: Preincubation): inactive; negative

CC(=O)OCN(C)N=O
mutagenic call (Test System: AMES SALMONELLA TYPHIMURIUM, Strain/Indicator: TA100, Metabolic Activation: HAMSTER, LIVER, CYTOSOL, Method: PREINCUBATION): active; positive | mutagenic call (Test System: AMES SALMONELLA TYPHIMURIUM, Strain/Indicator: TA100, Metabolic Activation: HAMSTER, LIVER, CYTOSOL, Method: STANDARD PLATE): active; positive | mutagenic call (Test System: AMES SALMONELLA TYPHIMURIUM, Strain/Indicator: TA104, Metabolic Activation: HAMSTER, LIVER, CYTOSOL, Method: PREINCUBATION): active; positive | mutagenic call (Test System: AMES SALMONELLA TYPHIMURIUM, Strain/Indicator: TA104, Metabolic Activation: HAMSTER, LIVER, CYTOSOL, Method: STANDARD PLATE): active; positive | mutagenic call (Test System: AMES SALMONELLA TYPHIMURIUM, Strain/Indicator: TA1535, Metabolic Activation: NONE, Method: PREINCUBATION): active; positive | mutagenic call (Test System: UDS RAT UROTHELIAL CELLS, Strain/Indicator: THY INCORP, Metabolic Activation: NONE): active; positive
